Patent publication US10426751B2, “Allosteric activators for treatment of phenylketonuria” (MCMASTER UNIVERSITY, priority 2015, dated 2019)
Where a chain is given by its changes, count along the chain named. “Also recorded” adds a separate entry of the source. Blank lines part the entries; values can stand above or below the molecule they belong to.

Experiments:
Plasmodium falciparum = conditions: read-out: IC50 (competitive inhibitor); cited from earlier work
WT-PAH [1] = biological target: T1, WT-PAH (Homo sapiens, UniProt P00439); assay: Chaperone (refolding) assay: PAH activity after dilution from 6.0 M to 0.5 M GndCl; type: biochemical; conditions: for chaperone activity upon refolding (in words): ligand 20 μM
T1 construct: made in house; the paragraph itself says 'eukaryotic cell cultures' (pMAL vector, Martinez laboratory, University of Bergen)
T1 sequence (P00439 1-452): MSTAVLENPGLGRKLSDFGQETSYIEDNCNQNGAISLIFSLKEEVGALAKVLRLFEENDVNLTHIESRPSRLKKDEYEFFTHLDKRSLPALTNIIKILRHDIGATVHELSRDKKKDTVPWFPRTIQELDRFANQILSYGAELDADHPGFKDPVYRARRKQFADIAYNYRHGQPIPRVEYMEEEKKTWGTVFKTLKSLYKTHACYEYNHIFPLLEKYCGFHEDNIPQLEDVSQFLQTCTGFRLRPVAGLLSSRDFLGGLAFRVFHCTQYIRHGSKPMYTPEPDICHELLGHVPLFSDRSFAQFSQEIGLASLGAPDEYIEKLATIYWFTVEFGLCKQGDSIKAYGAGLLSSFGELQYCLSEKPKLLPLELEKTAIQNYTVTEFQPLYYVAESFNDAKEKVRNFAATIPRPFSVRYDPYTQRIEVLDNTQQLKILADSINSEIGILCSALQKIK
Method: (§1) For instance, a recovery of 50% of residual enzyme activity was achieved without ligand when PAH was incubated in 8.0 M urea after its dilution to 0.5 M urea to trigger protein refolding. In order to further reduce enzyme reversibility, the recovery of PAH activity was subsequently assessed when it was incubated using 6.0 M GndCl for 10 min and subsequently diluted to 0.5 M GndCl in the presence or absence of screen-positive ligands (20 μM) in enzyme reaction buffer with PAH activity measurements performed by CE as described previously. […] Two lead compounds and several analogs of SA were subsequently tested using two different mutants of PAH (I65T and R261Q) without chemical denaturants after the two-tiered screening.

beta-amyloid peptide = conditions: cited from earlier work
WT-PAH [2] = biological target: T1, WT-PAH; assay: Primary screen (READ): ligand-induced stabilization of PAH activity in 8 M urea, Tyr formation by CE-UV; type: biochemical; conditions: ligand 20 μM; for stabilization / enhancement effect on PAH activity (in words): denaturing conditions
Method: (§2) Tetrameric human phenylalanine hydroxylase (PAH) enzyme kinetic assays were performed off-line under standardized conditions prior to quantification of Tyr formation by CE with UV detection. Enzyme assays were performed by first mixing together Phe (1 mM), catalase (100 nM) and PAH (0.25 μM/subunit) in a reaction buffer (20 mM HEPES and 200 mM NaCl, pH 7.0) that were equilibrated at 25° C. for 4 min. Then, ferrous (Fe^2+) ammonium sulfate (100 μM) was added to the solution for 1 min and the reaction was subsequently initiated by addition of BH4 ([…]) with DTT (5 mM) using a total volume of 100 μL. The reaction mixture was then vortexed for 60 s followed by sonication for 2 min prior to centrifugation for 10 s at 4 g and storage in a refrigerator (+4° C.). An aliquot (20 μL) was withdrawn from the quenched enzyme reaction and placed in a micro vial containing Me-Tyr as IS (100 μM) prior to CE analysis. The stability of the quenched enzyme reaction was confirmed by intermittent analysis of PAH activity over 6 h at room temperature, and no significant changes in the Tyr/IS or Phe/Tyr response ratio were measured. Enzymatic reactions were performed for both WT-PAH and two PAH mutants by pre-equilibrating each ligand for 10 min prior to addition of ferrous ion and BH4/DDT as described in enzyme reaction protocol in order to assess for ligand-induced PAH inhibition or activation.
Unlike thermal stability assays that can induce protein aggregation, chemical denaturants are more suitable as perturbants to promote unfolding and enzyme inactivation while solubilizing multimeric proteins. In this context, restoration of enzyme activity upon denaturation (READ) was first introduced to characterize PCs that stabilize yet enhance the activity of a lysosomal enzyme, β-glucocerebrosidase (GCase). Herein, READ was modified, further optimized and validated for primary screening of PCs for the cytosolic enzyme (PAH) using a chemical library containing structurally unique compounds with drug-like activity. For instance, the primary screen was used to measure ligand-induced stabilization of PAH by extrinsic small molecules that impart greater resistance to urea unfolding as compared to ligand-free apo-enzyme conditions. PAH activity was first examined as a function of urea concentration (0 to 8 M) and pre-equilibration time (10 min to 2 hr) in order to determine optimum conditions where residual enzyme activity was largely attenuated below 10% due to protein unfolding. Protein unfolding was performed in triplicate offline with the enzyme reaction buffer (20 mM HEPES and 200 mM NaCl, pH 7.0) using tetrameric human PAH (1 μM and/or 0.1 μM) or mutant PAH (1 μM and/or 0.1 μM) incubated 10 min in 0 M or 8 M urea in the presence or absence of ligand (20 μM). Dose-response studies (0, 2.0 and 20 μM) were subsequently performed in triplicate on screen-positive compounds using re-synthesized ligands in order to further validate initial screen results. In all cases, quenched enzyme reactions were processed as described previously prior to CE analysis. PAH activity measurements based on Tyr formation at 8M urea with the presence or absence of PC were normalized to 0 M urea for each aliquot enzyme reaction to minimize long-term variation, which also enables direct comparison of the ligand-induced stabilization activity under denaturing conditions (8M urea) while confirming inhibition and activation effects for ligands under native conditions (0 M urea).

WT-PAH [3] = biological target: T1, WT-PAH; assay: PAH enzyme activity under native conditions (0 M urea), ligand-induced inhibition or activation; type: biochemical; conditions: ligand 20 μM
Method: as §2, with “An aliquot (20 μL) was withdrawn from the quenched enzyme reaction and placed in a micro vial containing Me-Tyr as IS (100 μM) prior to CE analysis.” left out, “Enzymatic reactions were performed for both WT-PAH and two PAH mutants by pre-equilibrating each ligand for 10 min prior to addition of ferrous ion and BH4/DDT as described in enzyme reaction protocol in order to assess for ligand-induced PAH inhibition or activation.” left out
Unlike thermal stability assays that can induce protein aggregation, chemical denaturants are more suitable as perturbants to promote unfolding and enzyme inactivation while solubilizing multimeric proteins. In this context, restoration of enzyme activity upon denaturation (READ) was first introduced to characterize PCs that stabilize yet enhance the activity of a lysosomal enzyme, β-glucocerebrosidase (GCase). […]

R261Q PAH mutant = biological target: T2, R261Q PAH mutant (Homo sapiens, UniProt P00439, R261Q); assay: PKU-mutant activity enhancement without chemical denaturants, CE-UV; type: biochemical; conditions: ligand 20 μM, no denaturant
T2 construct: made in house; the paragraph itself says 'eukaryotic cell cultures' (pMAL vector)
T2 sequence (P00439 1-452 R261Q): T1 sequence (P00439 1-452) with R261Q
Method: Expression of recombinant human WT-PAH and two PAH mutants ([…]) as fusion protein with maltose-binding protein in […] using pMAL expression vector was performed by the Martinez laboratory at the University of Bergen as described in Svebak et al., Biochem. J., 1995, 306, 589-597. Briefly, purification of the fusion proteins expressed in the pMAL vector system was performed using affinity chromatography followed by size-exclusion chromatography to remove low molecular weight components. Subsequently, the fusion proteins were cleaved by the restriction protease factor Xa and then phosphorylated by cyclic adenosine monophosphate (cAMP)-dependent protein kinase. The two clinically relevant PAH mutants, I65T and R261Q comprise single-point mutations in the regulatory and catalytic domain, respectively which are associated with highly variable phenotypes ranging from mild to classical PKU. For instance, patients with R261Q genotypes are reported to have inconsistent responses to BH4 therapy. In this work, I65T and R261Q PAH mutants were measured to have residual catalytic activities of (35±1)% and (5±0.5)% relative to WT PAH under standardized conditions (i.e., enzyme concentrations, assay buffer etc.), respectively. Stock solutions of WT-PAH and PAH mutants were prepared in enzyme reaction buffer (20 mM HEPES pH 7.0, 200 mM NaCl), and divided into separate 10 μL aliquots in 0.5 mL sterilized centrifuge tubes prior to storage at −80° C. Note that all enzyme assays were performed on aliquots of frozen enzymes thawed slowly in the fridge prior to daily use.
as §2, §1

SMILES: O=C(O)C1=CC(O)C(O)C(O)C1F (stereo not drawn) [6-fluoro-shikimate]
IC50 (Plasmodium falciparum): 15 µM

SMILES: O=C(O)c1cc(O)c(O)c(O)c1 [GA, gallic acid]
chaperone activity upon refolding (in words) (WT-PAH [1]): destabilizes and reduces the activity of WT-PAH upon refolding | oligomerization of beta-amyloid peptide (in words) (beta-amyloid peptide): inhibits oligomerization of beta-amyloid peptide

SMILES: O=C(O)C1(O)C[C@@H](O)C(O)[C@H](O)C1 (stereo partly drawn) [QA, D-quinic acid]
chaperone activity upon refolding (in words) (WT-PAH [1]): significantly restored; also recorded: chaperone activity | stabilization / enhancement effect on PAH activity (in words) (WT-PAH [2]): exhibits PAH stabilization

SMILES: Nc1c(Br)cc(Br)cc1CN[C@H]1CC[C@H](O)CC1 [ambroxol]
stabilization / enhancement effect on PAH activity (in words) (WT-PAH [2]): no enhancement effect

SMILES: COc1ccc([C@@H]2Sc3ccccc3N(CCN(C)C)C(=O)[C@@H]2OC(C)=O)cc1 [diltiazem]
stabilization / enhancement effect on PAH activity (in words) (WT-PAH [2]): no enhancement effect

SMILES: OCCN1CCN(CCCN2c3ccccc3Sc3ccc(C(F)(F)F)cc32)CC1 [fluphenazine]
stabilization / enhancement effect on PAH activity (in words) (WT-PAH [2]): no enhancement effect

SMILES: O[C@H]1[C@H](O)[C@@H](O)[C@H](O)[C@@H](O)[C@H]1O [myo-inositol]
stabilization / enhancement effect on PAH activity (in words) (WT-PAH [2]): no significant activity

Further lines, with some results ahead:

chaperone activity upon refolding (in words) (WT-PAH [1]): abolishes the chaperone activity
SMILES: O=C(O)C1=CC(=O)[C@@H](O)[C@H](O)C1 [DSA, 3-dehydroshikimic acid]

chaperone activity upon refolding (in words) (WT-PAH [1]): abolishes the chaperone activity
SMILES: CCOC(=O)C1=C[C@@H](O)[C@@H](O)[C@H](O)C1 [ESA, ethoxyshikimate]

activity enhancement of R261Q PAH mutant (R261Q PAH mutant): 3-5 fold | activity enhancement of R261Q PAH mutant (R261Q PAH mutant; listed as HCH): 5 fold | chaperone activity upon refolding (in words) (WT-PAH [1]): significantly restored | residual activity of WT-PAH after refolding (WT-PAH [1]; without ligand (7±0.5) %): ~38±2% | PAH residual activity (% of WT-PAH) (WT-PAH [2]; 8 M urea, ligand-free enzyme (7±0.5) %): 16%
SMILES: O=C(O)C1=C[C@@H](O)[C@@H](O)[C@H](O)C1 [SA, (3R,4S,5R)-3,4,5-trihydroxycyclohex-1-ene-1-carboxylic acid]
inhibition or activation of WT-PAH under native conditions (in words) (WT-PAH [3]): weak activation effects; also recorded: lack of SA inhibitory effects

stabilization / enhancement effect on PAH activity (in words) (WT-PAH [2]): no enhancement effect
SMILES: OC[C@H]1CNC[C@@H](O)[C@@H]1O [isofagomine]
